Assay: In vivo pharmacokinetics in rats
Settings: SD rats
Experimental: Test Example 4 Study of In Vivo Pharmacokinetics of the Present Compounds in Rats
Male SD rats (Shanghai Sippr-BK Experimental Animal Co., Ltd) were purchased and kept in Shanghai University of Traditional Chinese Medicine animal center (approved by the ethics committee of Shanghai University of Traditional Chinese Medicine) for 7 days. The rats were randomly divided into 4 groups (˜220 g), 3 rats for each group. Animals were administered intravenously (iv) and orally (po). The rats in po group were starved for 12 hours before administration. After administration, blood was collected from the orbital venous plexus at 0 min (before administration), 2 min, 5 min, 15 min, 30 min, 1 h, 2 h, 4 h, 6 h, 8 h and 24 h. About 200 ul of blood was collected at each time point, and were collected in 1.5 ml centrifuge tube containing heparin sodium. The upper blood […] were collected by centrifugation (8000 rpm, 3 min) and stored at −80° C.
Preparation of test samples: 125.0 mg compound 34 or compound 35 was weighed and added with 4 ml ultrapure water, and 25 ul methanesulfonic acid was added with stirring. The mixture was further stirred until clear and transparent (pH ˜3.32). 1 ml of the above solution was added with 4 ml of ultra-pure water to obtain 5 mg/ml of compound 34 or compound 35 solution (pH=3.5).
Dose and mode of administration: single oral dose (100 mpk) and single intravenous dose (5 mpk).
Administration volume: 4 ml/kg (orally), 1 ml/kg (intravenously).
The plasma concentration of the compound was determined by LC-MS/MS (AB scexqtrap@4500 LCMS/MS system). Pharmacokinetic parameters were calculated by WinNonlin (a professional software). The experiment was repeated once.

In the case of `C=CC(=O)N1CCC(N(CC)c2cc(-c3ccc(CN4CCCCC4)cc3)cc(C(=O)NCc3c(C)cc(C)[nH]c3=O)c2C)CC1` [Example 34, N-(4,6-dimethyl-2-oxo-1,2-dihydro-pyridin-3-ylmethyl)-5-[(1-acryloyl-piperidin-4-yl)-ethyl-amino]-4-methyl-4′-(piperidin-1-ylmethyl)-[1,1′-biphenyl]-3-carboxamide], the “bioavailability, in words” value is reported as “good bioavailability” and the bioavailability (male, rat, plasma, IV 5 mg/kg, PO 100 mg/kg, methanesulfonic acid aqueous solution) is reported as 48.8%.

Source: patent US11214561B2, “Histone methyltransferase EZH2 inhibitor, preparation method and pharmaceutical use thereof” (ANCUREALL PHARMACEUTICAL (SHANGHAI) CO., LTD., priority 2017, dated 2022)
